Results published in patent publication US12637424B2, “Pharmaceutical salt of an arylpyrrole derivative” (SENTINEL ONCOLOGY LIMITED, priority 2020, dated 2026).
Where a name gives a salt, the structure may show the parent alone.

Assays:
Assay type in all cases: physicochemical
[1] = Gravimetric solubility in water; details: thermodynamic from solid, gravimetric solubility protocol
Method: The solubility in water of the salts was measured using a gravimetric solubility protocol. 1 ml of water was charged into crystallisation tubes. The solid was weighed into a tared glass vial, added in portions to the solutions and the vial weighed after each addition until a hazy solution was observed. The amount in mg was then calculated to give the solubility in mg/ml.

[2] = Gravimetric vapour sorption (GVS)
Method: The sample was maintained at a constant temperature (25° C.) by the instrument controls. The humidity was controlled by mixing streams of dry and wet nitrogen, with a total flow of 250 ml·min-1. The instrument was verified for relative humidity content by measuring three calibrated Rotronic salt solutions (10-50-88%). The weight change of the sample was monitored as a function of humidity by a microbalance (accuracy+/−0.005 mg). A defined amount of sample was placed in a tared mesh stainless steel basket under ambient conditions. A full experimental cycle typically consisted of three scans (sorption, desorption and sorption) at a constant temperature (25° C.) and 10% RH intervals over a 0-90% range (60 minutes for each humidity level).

[3] = Solubility in (2-hydroxypropyl)-β-cyclodextrin 20% w/v in water; details: continuous stirring, gentle warming to 40° C.
[4] = Powder density and flowability
Method: The compound was allowed to settle prior to weighing with approximately 40 mL volume occupied and bulk density calculated. […] The tap density was then calculated.

ICH storage stability = assay: ICH storage stability
Text: The stability protocol followed ICH guidelines. […] Following storage, these samples were removed from the stability cabinet and analysed for appearance, water content by Karl Fischer titration (KF), and purity. No change in water content or chemical purity by HPLC was observed over six months. […]

[5] = calculated from bulk and tap density

Compound	solubility [1]	moisture content before the first desorption ([2]; GVS, 25° C.)	moisture taken up between 80 and 90% RH ([2]; GVS, 25° C., 80-90% RH)	concentration achieved in solution [3]	powder bulk density [4]	tap density [4]	Carr's index [4, 5]	Hausner ratio [4, 5]	flowability ([4]; descriptor from Carr's index and Hausner ratio)	Appearance (ICH storage stability; T = 0)	Chemical purity by HPLC (ICH storage stability; T = 0)	Water content by KF (ICH storage stability; T = 0)	Appearance (ICH storage stability; T = 6 month, 25° C./60% RH)	Chemical purity by HPLC (ICH storage stability; T = 6 month, 25° C./60% RH)	Water content by KF (ICH storage stability; T = 6 month, 25° C./60% RH)	Appearance (ICH storage stability; T = 6 month, 40° C./75% RH)	Chemical purity by HPLC (ICH storage stability; T = 6 month, 40° C./75% RH)	Water content by KF (ICH storage stability; T = 6 month, 40° C./75% RH)	change in water content or chemical purity by HPLC (ICH storage stability; over six months, 25° C./60% RH and 40° C./75% RH)	moisture uptake (surface moisture) ([2]; at 90% RH)
CN(C)CCNC(=O)c1ccc(-c2ccc(-c3ccc(Cl)cc3)n2-c2ccccc2C(F)(F)F)cc1 (single isomer, unassigned) [Atropisomer A-2 Tartrate Pattern A salt]	6700 µg/mL	–	–	–	–	–	–	–	–	–	–	–	–	–	–	–	–	–	–	–
CN(C)CCNC(=O)c1ccc(-c2ccc(-c3ccc(Cl)cc3)n2-c2ccccc2C(F)(F)F)cc1 (single isomer, unassigned) [Atropisomer A-2 Tartrate Pattern B salt]	7500 µg/mL	ca. 0.3%	ca. 0.8%	> 100 mg/mL	0.55 g/mL	~0.659 g/mL	16.5%	1.19	fair	A white solid.	99.60%	0.2% w/w	A white solid.	99.60%	0.2% w/w	A white solid.	99.60%	0.2% w/w	No change	–
CN(C)CCNC(=O)c1ccc(-c2ccc(-c3ccc(Cl)cc3)n2-c2ccccc2C(F)(F)F)cc1 [(+)-L-tartaric acid salt, (R)-4-[5-(4-chlorophenyl)-1-[2-(trifluoromethyl)-phenyl]pyrrol-2-yl]-N-[2-(dimethylamino)-ethyl]benzamide (+)-L-tartaric acid salt]	–	–	–	–	–	–	–	–	–	–	–	–	–	–	–	–	–	–	–	< 1%
